# How the values were obtained:
# [1] = target: 3',5'-cyclic-AMP phosphodiesterase 4B (Homo sapiens, UniProt Q07343); assay: Inhibition of human U937 cells-derived PDE4B using [3H]-cAMP as substrate after 30 mins
# [2] = target: 3',5'-cyclic-AMP phosphodiesterase 4D (Homo sapiens, UniProt Q08499); assay: Inhibition of human U937 cells-derived PDE4D using [3H]-cAMP as substrate after 30 mins
# [3] = system: Mus musculus; assay: Anti-inflammatory activity in Swiss albino mouse model of sepsis assessed as inhibition of LPS-induced TNFalpha release at 10 mg/kg, po administered 30 mins prior to LPS challenge for 90 mins by ELISA relative to control; format: functional
# [4] = system: Rattus norvegicus; assay: Anti-inflammatory activity in Sprague-Dawley rat model of LPS-induced asthma/COPD assessed as inhibition of neutrophilia in BALF at 10 mg/kg, po administered 30 mins prior to LPS challenge for 40 mins relative to control; format: functional
# [5] = Inhibition of PDE4 in human PBMC assessed as reduction in LPS-stimulated TNFalpha release preincubated for 30 mins followed by LPS stimulation for 18 hrs by TR-FRET assay; format: cell-based
# [6] = target: T1, High affinity cAMP-specific and IBMX-insensitive 3',5'-cyclic phosphodiesterase 8A (Homo sapiens, UniProt O60658); assay: Inhibition of human PDE8A1
# [7] = target: T2, High affinity cGMP-specific 3',5'-cyclic phosphodiesterase 9A (Homo sapiens, UniProt O76083); assay: Inhibition of human PDE9A2 at 50 uM relative to control
# T2 sequence (O76083 whole entry): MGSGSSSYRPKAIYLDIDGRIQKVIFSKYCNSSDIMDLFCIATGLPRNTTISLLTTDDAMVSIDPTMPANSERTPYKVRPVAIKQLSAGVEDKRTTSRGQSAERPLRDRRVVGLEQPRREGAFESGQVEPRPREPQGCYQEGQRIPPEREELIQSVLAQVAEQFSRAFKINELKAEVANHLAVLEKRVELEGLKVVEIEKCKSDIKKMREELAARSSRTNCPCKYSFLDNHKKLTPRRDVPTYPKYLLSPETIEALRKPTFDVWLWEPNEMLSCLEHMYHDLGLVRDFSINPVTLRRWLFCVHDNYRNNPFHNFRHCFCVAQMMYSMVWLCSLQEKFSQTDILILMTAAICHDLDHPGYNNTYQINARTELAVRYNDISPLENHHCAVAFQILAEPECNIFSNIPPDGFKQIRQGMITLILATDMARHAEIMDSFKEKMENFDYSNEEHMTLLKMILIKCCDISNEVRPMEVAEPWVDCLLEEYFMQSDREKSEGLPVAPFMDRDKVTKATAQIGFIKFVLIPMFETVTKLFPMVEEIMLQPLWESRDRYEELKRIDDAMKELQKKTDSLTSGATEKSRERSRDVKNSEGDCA
# [8] = target: T3, cGMP-dependent 3',5'-cyclic phosphodiesterase (Homo sapiens, UniProt O00408); assay: Inhibition of human PDE2A
# [9] = target: T4, High affinity 3',5'-cyclic-AMP phosphodiesterase 7A (Homo sapiens, UniProt Q13946); assay: Inhibition of human PDE7A at 50 uM relative to control
# T4 sequence (Q13946 whole entry): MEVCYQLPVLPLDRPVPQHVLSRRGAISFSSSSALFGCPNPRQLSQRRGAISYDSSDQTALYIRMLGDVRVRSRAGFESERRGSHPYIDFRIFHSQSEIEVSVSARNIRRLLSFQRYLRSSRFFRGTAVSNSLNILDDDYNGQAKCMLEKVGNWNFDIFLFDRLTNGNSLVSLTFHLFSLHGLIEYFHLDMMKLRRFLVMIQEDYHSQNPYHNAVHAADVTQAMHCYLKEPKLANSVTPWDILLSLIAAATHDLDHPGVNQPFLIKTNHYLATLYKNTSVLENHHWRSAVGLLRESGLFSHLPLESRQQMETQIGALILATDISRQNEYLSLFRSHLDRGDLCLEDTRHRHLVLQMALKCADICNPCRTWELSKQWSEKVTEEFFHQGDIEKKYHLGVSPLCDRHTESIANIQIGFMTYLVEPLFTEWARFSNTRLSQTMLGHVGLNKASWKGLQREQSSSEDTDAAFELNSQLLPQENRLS
# [10] = target: T5, Cone cGMP-specific 3',5'-cyclic phosphodiesterase subunit alpha' (Homo sapiens, UniProt P51160); assay: Inhibition of human PDE6C at 50 uM relative to control
# T5 sequence (P51160 whole entry): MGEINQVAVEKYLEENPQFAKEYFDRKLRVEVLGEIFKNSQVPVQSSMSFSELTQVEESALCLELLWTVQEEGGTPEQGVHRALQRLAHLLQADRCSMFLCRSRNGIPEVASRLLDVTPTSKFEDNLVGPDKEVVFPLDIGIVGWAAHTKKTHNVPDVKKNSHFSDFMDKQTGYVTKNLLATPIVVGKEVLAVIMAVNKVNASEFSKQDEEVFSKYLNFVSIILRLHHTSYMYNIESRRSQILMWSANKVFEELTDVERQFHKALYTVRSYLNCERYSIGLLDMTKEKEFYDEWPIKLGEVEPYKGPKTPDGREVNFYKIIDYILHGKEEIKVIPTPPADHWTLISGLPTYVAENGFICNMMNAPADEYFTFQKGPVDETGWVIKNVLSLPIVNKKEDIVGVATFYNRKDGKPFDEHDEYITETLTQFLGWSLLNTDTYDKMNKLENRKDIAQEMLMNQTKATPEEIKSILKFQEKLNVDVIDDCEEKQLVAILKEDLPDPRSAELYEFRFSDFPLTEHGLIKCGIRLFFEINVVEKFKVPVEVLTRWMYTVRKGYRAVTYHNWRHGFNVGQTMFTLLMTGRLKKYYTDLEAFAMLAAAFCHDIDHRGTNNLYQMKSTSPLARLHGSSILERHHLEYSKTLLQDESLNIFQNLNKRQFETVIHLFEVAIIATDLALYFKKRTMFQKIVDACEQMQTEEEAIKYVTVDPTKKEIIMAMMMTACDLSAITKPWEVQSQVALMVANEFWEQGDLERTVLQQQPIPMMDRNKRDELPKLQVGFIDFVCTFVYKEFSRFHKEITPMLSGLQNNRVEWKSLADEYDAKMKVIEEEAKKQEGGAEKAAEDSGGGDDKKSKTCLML
# [11] = target: T6, Dual specificity calcium/calmodulin-dependent 3',5'-cyclic nucleotide phosphodiesterase 1A (Homo sapiens, UniProt P54750); assay: Inhibition of human PDE1A at 50 uM relative to control
# T6 sequence (P54750 whole entry): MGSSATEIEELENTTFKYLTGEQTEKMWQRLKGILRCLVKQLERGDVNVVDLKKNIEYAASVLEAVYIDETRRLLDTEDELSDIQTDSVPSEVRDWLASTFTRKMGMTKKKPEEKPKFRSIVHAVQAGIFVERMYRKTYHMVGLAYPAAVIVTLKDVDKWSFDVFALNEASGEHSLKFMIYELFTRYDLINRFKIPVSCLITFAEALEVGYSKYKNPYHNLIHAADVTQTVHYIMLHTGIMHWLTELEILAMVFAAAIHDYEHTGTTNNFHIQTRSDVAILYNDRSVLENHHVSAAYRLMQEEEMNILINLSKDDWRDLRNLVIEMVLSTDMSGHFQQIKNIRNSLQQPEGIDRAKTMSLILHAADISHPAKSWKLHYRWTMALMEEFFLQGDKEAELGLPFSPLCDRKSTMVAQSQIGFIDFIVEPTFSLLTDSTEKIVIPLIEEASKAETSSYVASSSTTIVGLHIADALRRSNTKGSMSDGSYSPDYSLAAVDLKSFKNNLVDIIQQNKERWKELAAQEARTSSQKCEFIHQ
# [12] = target: T7, cAMP and cAMP-inhibited cGMP 3',5'-cyclic phosphodiesterase 10A (Homo sapiens, UniProt Q9Y233); assay: Inhibition of human PDE10A2 at 50 uM relative to control
# T7 sequence (Q9Y233 whole entry): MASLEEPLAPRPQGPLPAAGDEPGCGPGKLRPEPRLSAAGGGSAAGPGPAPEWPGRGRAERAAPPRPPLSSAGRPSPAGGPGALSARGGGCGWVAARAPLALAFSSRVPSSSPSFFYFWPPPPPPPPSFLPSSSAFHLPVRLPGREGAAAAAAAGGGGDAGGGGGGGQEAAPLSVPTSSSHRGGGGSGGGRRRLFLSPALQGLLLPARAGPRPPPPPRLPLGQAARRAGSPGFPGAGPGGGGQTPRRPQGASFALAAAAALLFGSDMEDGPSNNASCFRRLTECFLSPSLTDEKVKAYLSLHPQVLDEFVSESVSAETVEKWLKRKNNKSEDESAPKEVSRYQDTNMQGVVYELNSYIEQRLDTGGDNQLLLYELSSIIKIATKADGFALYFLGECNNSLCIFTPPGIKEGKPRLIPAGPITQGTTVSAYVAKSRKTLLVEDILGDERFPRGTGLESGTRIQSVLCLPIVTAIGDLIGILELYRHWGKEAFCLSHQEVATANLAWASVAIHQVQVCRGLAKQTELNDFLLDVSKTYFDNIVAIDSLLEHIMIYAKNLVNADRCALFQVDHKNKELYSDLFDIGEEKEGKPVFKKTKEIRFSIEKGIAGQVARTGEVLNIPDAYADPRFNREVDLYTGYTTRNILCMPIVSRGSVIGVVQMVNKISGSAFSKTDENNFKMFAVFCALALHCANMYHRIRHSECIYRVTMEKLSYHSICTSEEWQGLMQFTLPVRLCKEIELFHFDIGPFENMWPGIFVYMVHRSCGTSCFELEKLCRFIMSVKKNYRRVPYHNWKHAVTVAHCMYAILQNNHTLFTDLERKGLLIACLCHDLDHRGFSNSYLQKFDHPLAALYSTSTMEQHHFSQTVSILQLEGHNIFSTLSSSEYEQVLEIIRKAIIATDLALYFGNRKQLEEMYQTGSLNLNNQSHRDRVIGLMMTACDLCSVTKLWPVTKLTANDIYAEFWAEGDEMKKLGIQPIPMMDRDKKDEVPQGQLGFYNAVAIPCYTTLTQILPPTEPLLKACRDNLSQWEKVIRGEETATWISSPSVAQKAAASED
# [13] = target: T4, High affinity 3',5'-cyclic-AMP phosphodiesterase 7A; assay: Inhibition of human PDE7A
# [14] = target: T7, cAMP and cAMP-inhibited cGMP 3',5'-cyclic phosphodiesterase 10A; assay: Inhibition of human PDE10A2
# [15] = target: T8, cGMP-specific 3',5'-cyclic phosphodiesterase (Homo sapiens, UniProt O76074); assay: Inhibition of human PDE5A
# [16] = target: T3, cGMP-dependent 3',5'-cyclic phosphodiesterase; assay: Inhibition of human PDE2A at 50 uM relative to control
# [17] = target: T9, Dual 3',5'-cyclic-AMP and -GMP phosphodiesterase 11A (Homo sapiens, UniProt Q9HCR9); assay: Inhibition of human PDE11A at 50 uM relative to control
# [18] = target: T10, cGMP-inhibited 3',5'-cyclic phosphodiesterase 3B (Homo sapiens, UniProt Q13370); assay: Inhibition of human PDE3B
# [19] = target: T6, Dual specificity calcium/calmodulin-dependent 3',5'-cyclic nucleotide phosphodiesterase 1A; assay: Inhibition of human PDE1A
# [20] = organism: Homo sapiens; assay: Potency index, ratio of rolipram IC50 to compound IC50 for inhibition of PDE4 in human PBMC
# [21] = organism: Homo sapiens; assay: Selectivity ratio of IC50 for human U937 cells-derived PDE4D to IC50 for human U937 cells-derived PDE4B
# [22] = target: T10, cGMP-inhibited 3',5'-cyclic phosphodiesterase 3B; assay: Inhibition of human PDE3B at 50 uM relative to control
# [23] = Stability in rat plasma assessed as parent compound remaining after 4 hrs; format: ADME, cell-free; conditions: read-out: Stability
# [24] = target: T2, High affinity cGMP-specific 3',5'-cyclic phosphodiesterase 9A; assay: Inhibition of human PDE9A2
# [25] = target: T9, Dual 3',5'-cyclic-AMP and -GMP phosphodiesterase 11A; assay: Inhibition of human PDE11A
# [26] = target: T8, cGMP-specific 3',5'-cyclic phosphodiesterase; assay: Inhibition of human PDE5A at 50 uM relative to control
# [27] = target: T5, Cone cGMP-specific 3',5'-cyclic phosphodiesterase subunit alpha'; assay: Inhibition of human PDE6C
# [28] = target: T1, High affinity cAMP-specific and IBMX-insensitive 3',5'-cyclic phosphodiesterase 8A; assay: Inhibition of human PDE8A1 at 50 uM relative to control
# [29] = Stability in rat plasma assessed as parent compound remaining after 8 hrs; format: ADME, cell-free; conditions: read-out: Stability
# Chain of 3',5'-cyclic-AMP phosphodiesterase 4B (Q07343 whole entry): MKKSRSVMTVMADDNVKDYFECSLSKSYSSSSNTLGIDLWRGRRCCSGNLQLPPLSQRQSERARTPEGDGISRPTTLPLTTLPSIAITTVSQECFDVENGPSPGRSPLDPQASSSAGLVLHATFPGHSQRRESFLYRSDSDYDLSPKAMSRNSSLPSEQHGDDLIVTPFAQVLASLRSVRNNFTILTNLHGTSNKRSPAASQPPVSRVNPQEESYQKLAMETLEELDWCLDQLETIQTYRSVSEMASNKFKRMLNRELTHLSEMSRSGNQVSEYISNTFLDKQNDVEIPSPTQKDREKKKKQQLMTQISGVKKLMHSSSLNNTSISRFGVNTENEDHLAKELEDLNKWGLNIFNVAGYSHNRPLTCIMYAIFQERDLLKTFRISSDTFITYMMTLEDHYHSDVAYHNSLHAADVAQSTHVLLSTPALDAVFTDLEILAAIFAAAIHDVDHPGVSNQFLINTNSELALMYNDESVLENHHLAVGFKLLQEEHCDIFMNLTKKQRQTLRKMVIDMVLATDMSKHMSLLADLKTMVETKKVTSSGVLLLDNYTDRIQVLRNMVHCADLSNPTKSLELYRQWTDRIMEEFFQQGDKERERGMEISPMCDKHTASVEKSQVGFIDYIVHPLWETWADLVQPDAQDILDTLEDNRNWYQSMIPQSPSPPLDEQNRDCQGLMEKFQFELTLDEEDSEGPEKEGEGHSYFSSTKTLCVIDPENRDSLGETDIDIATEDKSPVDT
# Chain of 3',5'-cyclic-AMP phosphodiesterase 4D (Q08499 whole entry): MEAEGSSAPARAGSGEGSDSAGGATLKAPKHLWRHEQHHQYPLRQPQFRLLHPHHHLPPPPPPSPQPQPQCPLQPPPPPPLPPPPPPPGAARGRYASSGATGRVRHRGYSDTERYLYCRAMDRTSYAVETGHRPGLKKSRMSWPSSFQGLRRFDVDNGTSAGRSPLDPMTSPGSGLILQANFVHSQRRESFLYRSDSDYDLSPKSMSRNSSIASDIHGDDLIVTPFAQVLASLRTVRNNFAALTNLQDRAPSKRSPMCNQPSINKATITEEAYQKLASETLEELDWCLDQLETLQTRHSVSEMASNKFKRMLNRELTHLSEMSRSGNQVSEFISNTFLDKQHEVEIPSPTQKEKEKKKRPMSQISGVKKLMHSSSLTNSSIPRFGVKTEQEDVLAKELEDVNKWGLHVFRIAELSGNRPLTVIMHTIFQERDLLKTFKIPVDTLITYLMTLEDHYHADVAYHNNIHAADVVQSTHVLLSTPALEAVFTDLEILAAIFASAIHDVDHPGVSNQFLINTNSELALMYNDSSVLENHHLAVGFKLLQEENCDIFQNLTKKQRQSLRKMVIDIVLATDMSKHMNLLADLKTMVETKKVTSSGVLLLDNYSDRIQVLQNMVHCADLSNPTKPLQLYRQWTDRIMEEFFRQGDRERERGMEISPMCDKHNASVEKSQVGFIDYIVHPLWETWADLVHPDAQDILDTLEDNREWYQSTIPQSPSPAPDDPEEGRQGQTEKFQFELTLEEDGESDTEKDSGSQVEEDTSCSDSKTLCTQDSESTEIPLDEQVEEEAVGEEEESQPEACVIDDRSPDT
smiles,measurement,setting,value
COc1cc2c(cc1OC1CCCC1)CN(C(=O)c1ccc(Cl)cc1)CC2,IC50,[1],18.4 µM
same,IC50,[2],92.6 µM
COc1ccc(C2CNC(=O)C2)cc1OC1CCCC1 (centres undefined) [ROLIPRAM],inhibition in vivo at 10 mg/kg,[3],41.2%
same,inhibition in vivo at 10 mg/kg,[4],32.5%
COc1cc2c(cc1OC1CCCC1)CN(C(=O)c1ccc(OC(F)(F)F)cc1)CC2,IC50,[1],1.05 µM
same,IC50,[2],6.5 µM
same,IC50,[5],9.85 µM
COc1cccc(C(=O)N2CCc3cc(OC)c(OC4CCCC4)cc3C2)c1,IC50,[1],19.7 µM
CCCCCOC(=O)C1Cc2cc(OC)c(OC3CCCC3)cc2CN1C(=O)c1ccc(OC(F)(F)F)cc1 (centres undefined),IC50,[1],> 50 µM
COc1ccc(C(=O)N2CCc3cc(OC)c(OC4CCCC4)cc3C2)cc1O,IC50,[1],3.42 µM
same,IC50,[2],18.6 µM
same,IC50,[5],36.6 µM
COC(=O)C1Cc2cc(OC)c(OC3CCCC3)cc2CN1C(=O)c1ccc(OC(F)(F)F)cc1 (centres undefined),IC50,[6],> 100 µM
same,inhibition,[7],6%
same,IC50,[8],> 100 µM
same,IC50,[1],0.88 µM
same,inhibition,[9],2%
same,inhibition,[10],7%
same,inhibition,[11],4%
same,inhibition,[12],3%
same,IC50,[13],> 100 µM
same,IC50,[14],> 100 µM
same,IC50,[15],> 100 µM
same,IC50,[2],18.4 µM
same,inhibition,[16],9%
same,inhibition,[17],6%
same,IC50,[18],> 100 µM
same,IC50,[19],> 100 µM
same,Ratio IC50,[20],5
same,Ratio IC50,[21],21
same,inhibition,[22],5%
same,remaining at 4 h,[23],72.8%
same,IC50,[24],> 100 µM
same,IC50,[25],> 100 µM
same,inhibition in vivo at 10 mg/kg,[3],50.2%
same,inhibition,[26],12%
same,IC50,[27],> 100 µM
same,inhibition,[28],13%
same,remaining at 8 h,[29],51.8%
same,IC50,[5],2.12 µM
same,inhibition in vivo at 10 mg/kg,[4],45.3%
CCOC(=O)C1Cc2cc(OC)c(OC3CCCC3)cc2CN1C(=O)c1ccc(OC(F)(F)F)cc1 (centres undefined),IC50,[1],1.62 µM
same,IC50,[2],32.7 µM
same,Ratio IC50,[21],21
same,remaining at 4 h,[23],73.7%
same,remaining at 8 h,[29],54.9%
same,IC50,[5],12.6 µM
CCN(CC)C(=O)C1Cc2cc(OC)c(OC3CCCC3)cc2CN1C(=O)c1ccc(OC(F)(F)F)cc1 (centres undefined),IC50,[1],12.7 µM
COc1cc2c(cc1OC1CCCC1)CN(C(=O)c1ccc(OC(F)(F)F)cc1)C(C(=O)OCc1ccccc1)C2 (centres undefined),IC50,[1],> 50 µM
same,remaining at 4 h,[23],84.2%
same,remaining at 8 h,[29],71.6%
COc1cc2c(cc1OC1CCCC1)CN(C(=O)c1ccc(OC(F)(F)F)cc1)C(C(=O)OC1CCCC1)C2 (centres undefined),IC50,[1],> 50 µM
COc1cc2c(cc1OC1CCCC1)CN(S(=O)(=O)c1ccc(NC(C)=O)cc1)CC2,IC50,[6],> 100 µM
same,inhibition,[7],4%
same,IC50,[8],> 100 µM
same,IC50,[1],0.95 µM
same,inhibition,[9],2%
same,inhibition,[10],8%
same,inhibition,[11],3%
same,inhibition,[12],3%
same,IC50,[13],> 100 µM
same,IC50,[14],> 100 µM
same,IC50,[15],> 100 µM
same,IC50,[2],11.6 µM
same,inhibition,[16],10%
same,inhibition,[17],7%
same,IC50,[18],> 100 µM
same,IC50,[19],> 100 µM
same,inhibition,[22],4%
same,IC50,[24],> 100 µM
same,IC50,[25],> 100 µM
same,inhibition in vivo at 10 mg/kg,[3],44.3%
same,inhibition,[26],10%
same,IC50,[27],> 100 µM
same,inhibition,[28],11%
same,IC50,[5],5.75 µM
same,inhibition in vivo at 10 mg/kg,[4],37.1%
COc1cc2c(cc1OC1CCCC1)CN(C(=O)c1cccc(Cl)c1)CC2,IC50,[1],20.5 µM
COc1cc2c(cc1OC1CCCC1)CN(C(=O)c1ccc(O)cc1)CC2,IC50,[1],3.25 µM
same,IC50,[2],16.3 µM
same,IC50,[5],48.3 µM
O=C(Nc1c(Cl)cncc1Cl)c1ccc(OC(F)F)c(OCC2CC2)c1 [ROFLUMILAST],inhibition in vivo at 10 mg/kg,[3],98.8%
same,IC50,[5],1.21 µM
same,inhibition in vivo at 10 mg/kg,[4],97.6%
COc1cc2c(cc1OC1CCCC1)CN(C(=O)c1ccc(OC(F)(F)F)cc1)C(C(=O)N(C)C)C2 (centres undefined),IC50,[1],8.05 µM
COc1cc2c(cc1OC1CCCC1)CN(S(=O)(=O)c1ccc(Cl)cc1)CC2,IC50,[1],11 µM
same,IC50,[2],134 µM
COc1ccc(C(=O)N2CCc3cc(OC)c(OC4CCCC4)cc3C2)cc1OC,IC50,[1],2.85 µM
same,IC50,[2],18.3 µM
same,IC50,[5],28.6 µM
COc1cc2c(cc1OC1CCCC1)CN(C(=O)c1ccc(OC(F)(F)F)cc1)C(C(=O)O)C2 (centres undefined),IC50,[1],8.35 µM
same,IC50,[5],69.3 µM
CNC(=O)C1Cc2cc(OC)c(OC3CCCC3)cc2CN1C(=O)c1ccc(OC(F)(F)F)cc1 (centres undefined),IC50,[1],16.4 µM
COc1ccc(C(=O)N2CCc3cc(OC)c(OC4CCCC4)cc3C2)cc1,IC50,[1],2.38 µM
same,IC50,[2],13.3 µM
same,IC50,[5],31.3 µM
COc1ccc(S(=O)(=O)N2CCc3cc(OC)c(OC4CCCC4)cc3C2)cc1,IC50,[1],3.1 µM
same,IC50,[2],43.6 µM
same,IC50,[5],29.7 µM

# — ChEMBL document CHEMBL4184310, “Structure-based design and structure-activity relationships of 1,2,3,4-tetrahydroisoquinoline derivatives as potential PDE4 inhibitors” (Bioorg Med Chem Lett, 2018)
